Measured values as given in US20260144799A1, “COMPOSITION COMPRISING A FIRST RAS INHIBITOR, SECOND RAS INHIBITOR AND A SHP2 INHIBITOR FOR USE IN THE TREATMENT OF CANCER” (Revolution Medicines, Inc., priority 2022, published 2026).

How the values were obtained:
[1] = tested on: eLL2 KRAS^WT/G12C NRAS^−/− A2 tumors; experiment: Tumor immune profile by flow cytometry in response to therapy; format: in vivo, murine; details: 4 days of treatment, tumors collected 24 hours post last dose, 3 animals/group
Method: Methods: The tumor immune profile of the murine syngeneic eLL2 KRAS^WT/G12C NRAS^−/− A2 tumors (3 animals/group) was evaluated in response to therapy by flow cytometry. The mono- and combination therapies were administered for 4 days at the concentrations described in FIG. 1 A-C. 24 hours post last dose the tumors were collected, tumor tissue was minced, processed with the Dri Tumor & Tissue Dissociation Reagent from BD Biosciences, and homogenized with the gentleMACS™ Dissociator. The cell suspension was incubated at 4° C. for 30 minutes with Mouse BD Fc Block (Clone 2.4G2 from BD Pharmingen), 10 minutes with Blue Dead Cell Stain Kit (from Invitrogen) and 30 min in cell staining buffer. […]

[2] = tested on: eLL2 KRAS^WT/G12C NRAS^−/− A2 model; experiment: Tumor cell growth in vivo, murine syngeneic eLL2 KRAS^WT/G12C NRAS^−/− A2 model; set-up: species or system C57BL/6J mice; details: on treatment; RMC-4550 30 mg/kg po qd
Method: Methods: Effects of Compound A and combination therapy with Compound B and/or RMC-4550 (a SHP2 inhibitor) on tumor cell growth in vivo were evaluated in the murine syngeneic eLL2 KRAS^WT/G12C NRAS^−/− A2 model using female C57BL/6J mice (6-8 weeks old). Mice were implanted with tumor cells (3×10^6 cells/mouse) in DMEM medium without supplements subcutaneously in the upper right flank. Once tumors reached an average size of ˜130 mm^3, mice were randomized to treatment groups to start the administration of test articles or vehicle. Compound A was administered by oral gavage once daily (po qd) at 200 mg/kg, compound B was administered by oral gavage once daily (po qd) at 25 mg/kg and RMC-4550 was administered by oral gavage once daily (po qd) at 30 mg/kg. In the dual combinations the compounds were administered at the same dose as the monotherapies qd. In the triple combination Compound A was dosed at 200 mg/kg po qd, Compound B was dosed at 50 mg/kg po q2d and RMC-4550 was dosed at 20 mg/kg po qd. The administration of Compound A, Compound B and RMC-4550 was ceased after 60 days of treatment in the monotherapy and combination groups. Body weight and tumor volume (using calipers) was measured twice weekly until study endpoints.

For `Cc1nc(N2CCC3(CC2)CO[C@@H](C)[C@H]3N)c(CO)nc1-c1cccc(Cl)c1Cl` [RMC-4550], the “Ly6C+ myeloid derived suppressor cells in tumor” value [1] was “only a slight decrease” and the “effect on tumor growth (in words)” value [2] was “tumor growth inhibition”.
